Data taken from patent publication US6737383B1, “Herbicidal oxadiazolidines” (priority 1999, dated 2004).

Legend:
wild oat = experiment: Test B pre/postemergence wild oat; format: in vivo, Avena fatua
Method in brief: (§1)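 Test chemicals in a non-phytotoxic solvent mixture with surfactant were sprayed preemergence onto planted seeds and postemergence onto plants 2 to 18 cm tall (1- to 4-leaf stage). After twelve to sixteen days in a greenhouse, injury was visually rated against untreated controls from 0 (no effect) to 10 (complete control).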

wheat = experiment: Test B pre/postemergence wheat; format: in vivo, Triticum aestivum
Method in brief: as §1

bamyardgrass = experiment: Test B flood test barnyardgrass; format: in vivo, Echinochloa crus-galli
Method in brief: (§2)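 Each value is a visual injury score relative to controls, with 10 meaning complete control and 0 no effect. Evaluation took place twelve to sixteen days after the 2-leaf-stage plants were treated and kept in the greenhouse.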

crabgrass = experiment: Test B pre/postemergence crabgrass; format: in vivo, Digitaria sanguinalis
Method in brief: as §1

corn = experiment: Test B pre/postemergence corn; format: in vivo, Zea mays
Method in brief: as §1

bedstraw = experiment: Test B pre/postemergence bedstraw; format: in vivo, Galium aparine
Method in brief: as §1

purple nutsedge = experiment: Test B pre/postemergence purple nutsedge; format: in vivo, Cyperus rotundus
Method in brief: as §1

smallflower flatsedge = experiment: Test B flood test smallflower flatsedge; format: in vivo, Cyperus difformis
Method in brief: as §2

duck salad = experiment: Test B flood test duck salad; format: in vivo, Heteranthera limosa
Method in brief: as §2

rice = experiment: Test B flood test rice; format: in vivo, Oryza sativa
Method in brief: as §2

giant foxtail = experiment: Test B pre/postemergence giant foxtail; format: in vivo, Setaria faberii
Method in brief: as §1

blackgrass = experiment: Test B pre/postemergence blackgrass; format: in vivo, Alopecurus myosuroides
Method in brief: as §1

morningglory = experiment: Test B pre/postemergence morningglory; format: in vivo, Ipomoea hederacea
Method in brief: as §1

velvetleaf = experiment: Test B pre/postemergence velvetleaf; format: in vivo, Abutilon theophrasti
Method in brief: as §1

cocklebur = experiment: Test B pre/postemergence cocklebur; format: in vivo, Xanthium strumarium
Method in brief: as §1

surinam grass = experiment: Test B pre/postemergence surinam grass; format: in vivo, Brachiaria decumbens
Method in brief: as §1

[1] = Preemergence, Rate 62 g/ha, scale of 0 to 10 where 0 is no effect and 10 is complete control
[2] = Preemergence, Rate 250 g/ha, scale of 0 to 10 where 0 is no effect and 10 is complete control
[3] = Preemergence, Rate 500 g/ha, scale of 0 to 10 where 0 is no effect and 10 is complete control
[4] = Rate 62 g/ha, Postemergence, scale of 0 to 10 where 0 is no effect and 10 is complete control
[5] = Rate 125 g/ha, Preemergence, scale of 0 to 10 where 0 is no effect and 10 is complete control
[6] = Rate 500 g/ha, Postemergence, scale 0 to 10, 0 no effect, 10 complete control
[7] = Rate 62 g/ha, headed Pre-emergence (flood test species), scale 0 to 10 (0 no effect, 10 complete control)
[8] = Rate 125 g/ha, Pre-emergence, flood test species, scale 0 to 10 where 0 is no effect and 10 is complete control
[9] = Rate 250 g/ha, Pre-emergence, flood-test species, scale 0 to 10, 0 is no effect, 10 is complete control
[10] = Rate 500 g/ha, Pre-emergence, flood test species, scale 0 to 10 (0 no effect, 10 complete control)
[11] = Rate 125 g/ha, Postemergence, scale 0 to 10

CCC(C)N(C(=O)n1oc(=O)n(-c2ccccc2C)c1=O)c1ccc(F)cc1 (stereo not shown) [Compound 239]
0: Wild oats plant response rating (wild oat; [1]) | Wild oats plant response rating (wild oat; [4]) | Wild oats plant response rating (wild oat; [5]) | Wild oats plant response rating (wild oat; [6]) | Wheat plant response rating (wheat; [1]) | Wheat plant response rating (wheat; [2]) | Wheat plant response rating (wheat; [4]) | Wheat plant response rating (wheat; [5]) | Wheat plant response rating (wheat; [6]) | Barnyardgrass plant response rating (bamyardgrass; [7]) | Barnyardgrass plant response rating (bamyardgrass; [8]) | Barnyardgrass plant response rating (bamyardgrass; [9]) | Barnyardgrass plant response rating (bamyardgrass; [10]) | Crabgrass plant response rating (crabgrass; [4]) | Corn plant response rating (corn; [1]) | Corn plant response rating (corn; [2]) | Plant response rating, Corn (corn; [3]) | Corn plant response rating (corn; [4]) | Corn plant response rating (corn; [11]) | Corn plant response rating (corn; [5]) | Plant response rating (0 to 10; 0 is no effect, 10 is complete control), Corn (corn; Rate 250 g/ha, Postemergence) | Corn plant response rating (corn; [6]) | Bedstraw plant response rating (bedstraw; [1]) | Bedstraw plant response rating (bedstraw; [2]) | Plant response rating, Bedstraw (bedstraw; [3]) | Bedstraw plant response rating (bedstraw; [4]) | Bedstraw plant response rating (bedstraw; [5]) | Nutsedge plant response rating (purple nutsedge; [1]) | Plant response rating, Nutsedge (purple nutsedge; [3]) | Nutsedge plant response rating (purple nutsedge; [4]) | Nutsedge plant response rating (purple nutsedge; [5]) | Plant response rating (0 to 10; 0 is no effect, 10 is complete control), Nutsedge (purple nutsedge; Rate 250 g/ha, Postemergence) | Nutsedge plant response rating (purple nutsedge; [6]) | S. Flatsedge plant response rating (smallflower flatsedge; [7]) | S. Flatsedge plant response rating (smallflower flatsedge; [8]) | S. Flatsedge plant response rating (smallflower flatsedge; [9]) | S. Flatsedge plant response rating (smallflower flatsedge; [10]) | Ducksalad plant response rating (duck salad; [7]) | Ducksalad plant response rating (duck salad; [8]) | Ducksalad plant response rating (duck salad; [9]) | Ducksalad plant response rating (duck salad; [10]) | Rice plant response rating (rice; [7]) | Rice plant response rating (rice; [8]) | Rice plant response rating (rice; [9]) | Rice plant response rating (rice; [10]) | Giant foxtail plant response rating (giant foxtail; [4]) | Blackgrass plant response rating (blackgrass; [1]) | Blackgrass plant response rating (blackgrass; [4]) | Blackgrass plant response rating (blackgrass; [11]) | Morningglory plant response rating (morningglory; [1]) | Morningglory plant response rating (morningglory; [2]) | Plant response rating, Morningglory (morningglory; [3]) | Morningglory plant response rating (morningglory; [5]) | Velvetleaf plant response rating (velvetleaf; [1]) | Velvetleaf plant response rating (velvetleaf; [4]) | Velvetleaf plant response rating (velvetleaf; [5]) | Cocklebur plant response rating (cocklebur; [1]) | Cocklebur plant response rating (cocklebur; [2]) | Plant response rating, Cocklebur (cocklebur; [3]) | Cocklebur plant response rating (cocklebur; [4]) | Cocklebur plant response rating (cocklebur; [5]) | B. signalgrass plant response rating (surinam grass; [1]) | B. signalgrass plant response rating (surinam grass; [4]) | B. signalgrass plant response rating (surinam grass; Rate 125 g/ha, Postemergence, scale 0 (no effect) to 10 (complete control)) | B. signalgrass plant response rating (surinam grass; [5]) | Plant response rating (0 to 10; 0 is no effect, 10 is complete control), B. signalgrass (surinam grass; Rate 250 g/ha, Postemergence) | B. signalgrass plant response rating (surinam grass; [6])
3: Wild oats plant response rating (wild oat; [2]) | Plant response rating, Wild oats (wild oat; [3]) | Bedstraw plant response rating (bedstraw; [11]) | Plant response rating (0 to 10; 0 is no effect, 10 is complete control), Bedstraw (bedstraw; Rate 250 g/ha, Postemergence) | Bedstraw plant response rating (bedstraw; [6]) | Blackgrass plant response rating (blackgrass; [5]) | Blackgrass plant response rating (blackgrass; [6]) | Plant response rating (0 to 10; 0 is no effect, 10 is complete control), Morningglory (morningglory; Rate 250 g/ha, Postemergence) | Velvetleaf plant response rating (velvetleaf; [6])
1: Plant response rating (0 to 10; 0 is no effect, 10 is complete control), Giant foxtail (giant foxtail; Rate 250 g/ha, Postemergence) | Morningglory plant response rating (morningglory; [4]) | Cocklebur plant response rating (cocklebur; [11]) | Plant response rating (0 to 10; 0 is no effect, 10 is complete control), Cocklebur (cocklebur; Rate 250 g/ha, Postemergence) | Cocklebur plant response rating (cocklebur; [6])
5: Plant response rating, Velvetleaf (velvetleaf; [3]) | Plant response rating, B. signalgrass (surinam grass; [3])
6: Crabgrass plant response rating (crabgrass; [6]) | Giant foxtail plant response rating (giant foxtail; [6])
10: Crabgrass plant response rating (crabgrass; [2]) | Plant response rating, Crabgrass (crabgrass; [3]) | Giant foxtail plant response rating (giant foxtail; [2]) | Plant response rating, Giant foxtail (giant foxtail; [3]) | Giant foxtail plant response rating (giant foxtail; [5])
9: Morningglory plant response rating (morningglory; [6])
7: Crabgrass plant response rating (crabgrass; [5])
2: Plant response rating, Wheat (wheat; [3]) | Plant response rating (0 to 10; 0 is no effect, 10 is complete control), Crabgrass (crabgrass; Rate 250 g/ha, Postemergence) | Plant response rating (0 to 10; 0 is no effect, 10 is complete control), Blackgrass (blackgrass; Rate 250 g/ha, Postemergence) | Velvetleaf plant response rating (velvetleaf; [2])
4: Giant foxtail plant response rating (giant foxtail; [1]) | Blackgrass plant response rating (blackgrass; [2]) | Plant response rating, Blackgrass (blackgrass; [3]) | B. signalgrass plant response rating (surinam grass; Preemergence, Rate 250 g/ha, scale 0 to 10, 0 is no effect, 10 is complete control)
